Patent US8168651B2, “Protein kinase modulators” (Cylene Pharmaceuticals, Inc., priority 2008, dated 2012)
Read-outs that look alike come from different tables or passages of the source.

Experiments:
Jurkat = experiment: Cell proliferation modulatory activity, Jurkat; type: cell-based; conditions: Homo sapiens; Jurkat cells
[1] = test system: HCT-116 human colorectal carcinoma cells; experiment: Cell-proliferation assay using Alamar Blue dye; type: cell-based; conditions: Homo sapiens, HCT-116, second HCT-116 column (c8); read-out: HCT-116 (uM) cell proliferation modulatory activity
recombinant human PIM1 = recombinant human PIM1 (Homo sapiens (Human), UniProt P11309); experiment: PIM-1 kinase activity in cell-free in vitro assay; type: biochemical; conditions: for inhibition at 0.5 µM: 500 nM compound, read-out: PIM-1: % inh 500 nM
Chain of recombinant human PIM1 (P11309 whole entry): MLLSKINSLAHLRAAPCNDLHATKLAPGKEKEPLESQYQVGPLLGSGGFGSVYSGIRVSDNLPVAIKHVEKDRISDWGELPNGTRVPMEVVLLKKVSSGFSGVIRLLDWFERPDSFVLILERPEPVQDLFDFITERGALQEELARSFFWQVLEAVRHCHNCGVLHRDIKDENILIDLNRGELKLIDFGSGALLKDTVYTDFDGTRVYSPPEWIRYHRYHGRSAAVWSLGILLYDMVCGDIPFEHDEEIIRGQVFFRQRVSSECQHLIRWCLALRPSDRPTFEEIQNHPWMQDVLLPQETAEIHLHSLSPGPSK

K-562 [2] = experiment: Cell proliferation modulatory activity, K-562; type: cell-based; conditions: Homo sapiens, K562; K-562 cells
MV-4-11 = experiment: Cell proliferation modulatory activity, MV-4-11; type: cell-based; conditions: Homo sapiens, MV4-11; MV-4-11 cells
phospho-BAD ser112 = phospho-BAD ser112 IC50 (Table 46); type: cell-based
MDA MB231 = MDA MB231 IC50 (Table 46); type: cell-based; conditions: Homo sapiens, MDA-MB-231
K-562 [3] = experiment: K-562 IC50 (Table 46); type: cell-based; conditions: Homo sapiens, K562
FLT3 autophos = FLT3 autophos (Homo sapiens (Human), UniProt P36888); experiment: FLT3 autophos IC50 (Table 46); type: cell-based
Chain of FLT3 autophos (P36888 27-993): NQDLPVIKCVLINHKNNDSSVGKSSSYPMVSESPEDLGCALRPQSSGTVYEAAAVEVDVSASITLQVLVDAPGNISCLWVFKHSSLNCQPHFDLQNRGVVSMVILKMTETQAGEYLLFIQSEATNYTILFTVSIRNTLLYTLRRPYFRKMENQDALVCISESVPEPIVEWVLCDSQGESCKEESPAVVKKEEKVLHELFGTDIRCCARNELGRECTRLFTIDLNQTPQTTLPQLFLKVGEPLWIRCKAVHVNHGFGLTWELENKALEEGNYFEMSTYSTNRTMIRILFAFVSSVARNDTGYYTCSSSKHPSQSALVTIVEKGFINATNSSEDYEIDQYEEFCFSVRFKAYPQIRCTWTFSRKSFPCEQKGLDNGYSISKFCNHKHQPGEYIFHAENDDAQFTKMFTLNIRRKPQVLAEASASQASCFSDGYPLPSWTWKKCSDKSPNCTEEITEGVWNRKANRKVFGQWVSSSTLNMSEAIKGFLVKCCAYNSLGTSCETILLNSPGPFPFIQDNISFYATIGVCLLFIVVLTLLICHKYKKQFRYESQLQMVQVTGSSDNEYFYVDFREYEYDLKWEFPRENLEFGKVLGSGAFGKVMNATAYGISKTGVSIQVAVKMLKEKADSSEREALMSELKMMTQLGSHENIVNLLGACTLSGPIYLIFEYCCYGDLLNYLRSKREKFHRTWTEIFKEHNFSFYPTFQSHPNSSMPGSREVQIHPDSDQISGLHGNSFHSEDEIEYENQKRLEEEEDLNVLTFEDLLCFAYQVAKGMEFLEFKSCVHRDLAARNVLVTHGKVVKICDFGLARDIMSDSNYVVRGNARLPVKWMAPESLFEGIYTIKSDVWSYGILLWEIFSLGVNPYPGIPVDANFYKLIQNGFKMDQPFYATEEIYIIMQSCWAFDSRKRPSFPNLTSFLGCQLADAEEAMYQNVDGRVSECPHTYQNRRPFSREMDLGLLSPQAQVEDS

MV-411 = MV-411 IC50 (Table 46); type: cell-based; conditions: Homo sapiens, MV4-11
[4] = test system: PC-3 human prostatic cancer cells; experiment: Cell-proliferation assay using Alamar Blue dye; type: cell-based; conditions: read-out: PC3 IC50
How it was run: (§1)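 MiaPaca, HCT-116 or PC-3 cells (4,000-5,000 per well) exposed to compound dilutions for 4 days at 37 °C, 5% CO2. Alamar Blue then added for 4 h; fluorescence read at Ex 544/Em 590 nm versus untreated and medium-only controls.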

[5] = test system: MiaPaca human pancreatic carcinoma cells; experiment: Cell-proliferation assay using Alamar Blue dye; type: cell-based; conditions: MIA PaCa-2
How it was run: as §1

MiaPaca xenografts = experiment: Tumor suppression in MiaPaca xenograft mice; type: in vivo, NCr nu/nu mice; conditions: IV administration
Procedure: Animals were handled under laminar-flow hoods.
Tumor volume measurements (FIG. 3A) and body weight (FIG. 3B) were recorded on days 3, 6, 8, 10, 13 and 15.
Gemzar™ administered at a dose of 80 mg/kg IP Q3D was used as a positive control.

A549 = experiment: Cell-proliferation assay using Alamar Blue dye; type: cell-based; conditions: Homo sapiens
Procedure: (§2) A representative cell-proliferation assay protocol using Alamar Blue dye (stored at 4° C., use 20 ul per well) is described hereafter.
(§3) 96-Well Plate Setup and Compound Treatment
(§4) • a. Split and trypsinize cells. • b. Count cells using hemocytometer. • c. Plate 4,000-5,000 cells per well in 100 μl of medium and seed into a 96-well plate according to the following plate layout. Add cell culture medium only to wells B10 to B12. Wells B1 to B9 have cells but no compound added.
(§5) • d. Add 100 μl of 2× drug dilution to each well in a concentration shown in the plate layout above. At the same time, add 100 μl of media into the control wells (wells B10 to B12). Total volume is 200 μl/well. • e. Incubate four (4) days at 37° C., 5% CO2 in a humidified incubator. • f. Add 20 μl Alamar Blue reagent to each well. • g. Incubate for four (4) hours at 37° C., 5% CO2 in a humidified incubator. • h. Record fluorescence at an excitation wavelength of 544 nm and emission wavelength of 590 nm using a microplate reader.
(§6) In the assays, cells are cultured with a test compound for approximately four days, the dye then is added to the cells and fluorescence of […] dye is detected after approximately four hours. Different types of cells can be utilized in the assays (e.g., HCT-116 human colorectal carcinoma cells, PC-3 human prostatic cancer cells and MiaPaca human pancreatic carcinoma cells). Anti-proliferative effects of representative compounds are provided hereafter

MCF-7 = experiment: Cell-proliferation assay using Alamar Blue dye; type: cell-based; conditions: Homo sapiens, MCF7
Procedure: as §2, §3, §4, §5, §6

LNCaP = experiment: Cell-proliferation assay using Alamar Blue dye; type: cell-based; conditions: Homo sapiens
Procedure: as §2, §3, §4, §5, §6

MDAMB231 = experiment: Cell-proliferation assay using Alamar Blue dye; type: cell-based; conditions: Homo sapiens, MDA-MB-231
Procedure: as §2, §3, §4, §5, §6

K-562 [6] = experiment: Cell-proliferation assay using Alamar Blue dye; type: cell-based; conditions: Homo sapiens, K562
[7] = Pharmacokinetics after IV and PO dose in ICR mice; type: in vivo; conditions: for half-life: mouse, plasma
Procedure: […] Blood samples were collected at predetermined times and the plasma separated. Plasma was separated from the blood samples collected at 5, 15 and 30 minutes and 1, 2, 4, 8 and 24 hours post-dose.
Drug levels were quantified by the LC/MS/MS method described below. Noncompartmental pharmacokinetic analysis was applied for intravenous administration. A linear trapezoidal rule was used to compute AUC(0-24). The terminal t1/2 and C0 were calculated using the last three and the first three data points, respectively
Bioanalysis was performed using a Quattro Micro LC/MS/MS instrument in the MRM detection mode, with an internal standard (IS). Briefly, 15 µL plasma samples were prepared for analysis using protein precipitation with 120 μL of acetonitrile. The supernatants were transferred into a 96 well plate and subjected to LC-MS/MS analysis using a Phenomenex Polar-RP HPLC column. The mobile phases were 10 mM NH4HCO3 in water (Solution-A) and 10 mM NH4HCO3 in methanol (Solution-B). […] Quantitation of the analytes was performed in the batch mode with two bracketing calibration curves according to the bioanalytical sample list.

Compound | IC50 (phospho-BAD ser112) [µM] | IC50 (MDA MB231) [µM] | IC50 (K-562 [3]) [µM] | IC50 (FLT3 autophos) [µM] | IC50 (recombinant human PIM1) [µM] | IC50 (MV-411) [µM] | IC50 [4] [µM] | IC50 [5] [µM] | further results
O=C(O)c1ccc2c(c1)nc(Nc1ccc(OCc3ccccc3)cc1)c1ccncc12 |  |  |  |  |  |  |  |  | IC50 (Jurkat): 14.2 µM; IC50 [1]: > 10 µM; inhibition at 0.5 µM (recombinant human PIM1; cell-free assay): 44.3%
O=C(O)c1ccc2c(c1)nc(Nc1ccccc1OCc1ccccc1)c1ccncc12 |  |  |  |  |  |  |  |  | IC50 (Jurkat): 29.8 µM; IC50 [1]: > 10 µM; IC50 (K-562 [2]): > 10 µM; inhibition at 0.5 µM (recombinant human PIM1; cell-free assay): 27.7%; IC50 (MV-4-11): > 10 µM
O=C(O)c1ccc2c(c1)nc(Nc1ccc3c(c1)OCCO3)c1ccncc12 |  |  |  |  |  |  |  |  | IC50 (Jurkat): 29.6 µM; IC50 [1]: > 10 µM; IC50 (K-562 [2]): > 10 µM; inhibition at 0.5 µM (recombinant human PIM1; cell-free assay): 88.4%; IC50 (recombinant human PIM1; cell-free assay): 0.259 µM; IC50 (MV-4-11): > 10 µM
Fc1cc(OCCN2CCCC2)ccc1Nc1nc2c(-c3nnc[nH]3)cccc2c2cnccc12 | < 0.1 | < 1 | < 0.5 | > 10 | < 0.1 | < 0.1 |  |  | 
CN(C)CCOc1ccc(Nc2nc3c(-c4nnc[nH]4)cccc3c3cnccc23)cc1 | < 0.1 | 2.56 | < 0.1 | > 10 | < 0.1 | < 0.1 | 1.77 |  | 
CN(C)CCOc1ccc(Nc2nc3c(-c4nnc[nH]4)cccc3c3cnccc23)c(Cl)c1 | < 0.1 | 1.23 | 6.94 | 5.41 | < 0.1 | < 0.1 |  |  | 
Clc1cc(OCCN2CCOCC2)ccc1Nc1nc2c(-c3nnc[nH]3)cccc2c2cnccc12 | < 0.1 | > 10 | > 10 | 6.01 | < 0.1 | < 0.1 | > 30 |  | 
c1cc(-c2nnc[nH]2)c2nc(Nc3ccc(OCCN4CCOCC4)cc3)c3ccncc3c2c1 | < 0.5 | 2.04 | < 0.5 | > 10 | < 0.1 | < 0.1 | < 1 | 0.268 | 
c1cc(-c2nnc[nH]2)c2nc(NC3CCC3)c3ccncc3c2c1 | < 0.1 | > 10 | < 0.5 | > 10 | < 0.1 | < 0.1 | < 0.5 | 7.62 | 
COc1ccc(Nc2nc3c(-c4nnc[nH]4)cccc3c3cnccc23)c(F)c1 | 0.51 | 6.86 | < 1 | > 10 | < 0.1 | < 0.1 | < 0.5 | < 0.5 | 
c1cc(-c2nnc[nH]2)c2nc(N3CCCC3)c3ccncc3c2c1 | 2.94 | > 10 | 3.23 | > 10 | < 0.5 | < 1 | > 30 | < 0.1 | 
c1cc(-c2nnc[nH]2)c2nc(NC3CCCC3)c3ccncc3c2c1 | < 0.5 | > 10 | 1.93 | > 10 | < 0.1 | < 0.5 | > 30 |  | 
FC(F)(F)Oc1ccc(Nc2nc3c(-c4nnc[nH]4)cccc3c3cnccc23)c(Cl)c1 | 4.17 | > 10 | > 10 | > 10 | < 0.1 | < 0.1 | > 30 | > 10 | 
Oc1ccc(Nc2nc3c(-c4nnc[nH]4)cccc3c3cnccc23)c(Cl)c1 |  | 2.38 | < 0.5 |  | < 0.1 | > 10 | < 0.5 | < 1 | 
O=C(O)c1ccc2c(c1)nc(Nc1cccc(C(F)(F)F)c1)c1nc(NC3CC3)ncc12 [Compound A3] |  |  |  |  |  |  |  |  | tumor progression (MiaPaca xenografts): significantly inhibited tumor progression
O=C(O)c1ccc2c(c1)nc(NCCc1ccccc1)c1ccncc12 [drawing 988] |  |  |  |  |  |  |  |  | IC50 (A549): 47 µM; IC50 (MCF-7): 14.7 µM; IC50 (LNCaP): 8.6 µM
O=C(O)c1ccc2c(c1)nc(NCCc1cccc(Cl)c1)c1ccncc12 [drawing 1001] |  |  |  |  |  |  |  |  | IC50 (A549): 32.5 µM; IC50 (MCF-7): 47.6 µM; IC50 (LNCaP): 13.9 µM; IC50 (MDAMB231): 14.2 µM; IC50 (K-562 [6]): 9.18 µM
O=C(O)c1ccc2c(c1)nc(NCCc1cccc(F)c1)c1ccncc12 [drawing 1002] |  |  |  |  |  |  |  |  | IC50 (A549): 47.2 µM; IC50 (MCF-7): > 50 µM; IC50 (LNCaP): 10.3 µM; IC50 (MDAMB231): 5.83 µM
O=C(O)c1ccc2c(c1)nc(NCCCc1ccccc1)c1ccncc12 [drawing 1003] |  |  |  |  |  |  |  |  | IC50 (A549): > 50 µM; IC50 (MCF-7): > 50 µM; IC50 (LNCaP): 10.4 µM; IC50 (MDAMB231): 7.66 µM; IC50 (K-562 [6]): 7.17 µM
C#Cc1cccc(Nc2nc3cc(C(=O)O)ccc3c3cncnc23)c1 [drawing 1129] |  |  |  |  |  |  |  |  | F(0-24 h) ([7]; PO 24.5 mg/kg): 26.5%; F(0-Inf) ([7]; PO 24.5 mg/kg): 31.1%; Kel ([7]; PO 24.5 mg/kg): 0.0594 h⁻¹; half-life ([7]; IV 3.4 mg/kg): 4.9 h; half-life ([7]; PO 24.5 mg/kg): 11.7 h
CNC(=O)c1cccc2c1nc(Nc1cccc(Cl)c1)c1ccncc12 [drawing 2307] |  | > 10 | > 10 |  | < 0.1 | < 0.1 | > 30 | < 0.5 | 
